Reference: patent publication US20240018145A1, “[…]-DEPENDENT EN[…] TREATING OR […]” (priority 2020, published 2024)

Tested on: FLU A (PR/8/34)
Experiment: Flu A Neuraminidase Antiviral Assay
Format: cell-based
Conditions: not given

Structure (SMILES) | EC50 [nM]
O=C1c2c(O)c(=O)ccn2N2C(c3ccccc3)C(CC3(C(F)(F)F)CC3)CCC2N1CC1CC1 (single isomer, unassigned) [Compound 90A, 5-(cyclopropylmethyl)-7-hydroxy-1-phenyl-2-((1-(trifluoromethyl)cyclopropyl)methyl)-1,2,3,4,4a,5-hexahydrodipyrido[1,2-b:2′,1′-f][1,2,4]triazine-6,8-dione] | 772
CN1C(=O)c2c(O)c(=O)ccn2N2C(c3ccccc3)C(c3ccc(F)c(F)c3F)CCC12 (single isomer, unassigned) [Compound 85D, 7-hydroxy-5-methyl-1-phenyl-2-(2,3,4-trifluorophenyl)-1,2,3,4,4a,5-hexahydrodipyrido[1,2-b:2′,1′-f][1,2,4]triazine-6,8-dione] | 218
Cc1ccccc1C1C(CC(F)(F)F)CCC2N(C)C(=O)c3c(O)c(=O)ccn3N12 (single isomer, unassigned) [Compound 120A, 7-hydroxy-5-methyl-1-(o-tolyl)-2-(2,2,2-trifluoroethyl)-1,2,3,4,4a,5-hexahydrodipyrido[1,2-b:2′,1′-f][1,2,4]triazine-6,8-dione] | 2720
CC1(c2ccccc2)CCCC2N(CC3CC3)C(=O)c3c(O)c(=O)ccn3N21 (single isomer, unassigned) [Compound 37B, 5-(cyclopropylmethyl)-7-hydroxy-1-methyl-1-phenyl-1,2,3,4,4a,5-hexahydrodipyrido[1,2-b:2′,1′-f][1,2,4]triazine-6,8-dione] | 1240
Cc1cccnc1C1(C)CCCC2N(CC(F)(F)F)C(=O)c3c(O)c(=O)ccn3N21 (single isomer, unassigned) [Compound 44A, 7-hydroxy-1-methyl-1-(3-methylpyridin-2-yl)-5-(2,2,2-trifluoroethyl)-1,2,3,4,4a,5-hexahydrodipyrido[1,2-b:2′,1′-f][1,2,4]triazine-6,8-dione] | > 8100
Cc1ccccc1C1C(c2ccc(F)c(F)c2)CCC2N(C)C(=O)c3c(O)c(=O)ccn3N12 (single isomer, unassigned) [Compound 91A, 2-(3,4-difluorophenyl)-7-hydroxy-5-methyl-1-(o-tolyl)-1,2,3,4,4a,5-hexahydrodipyrido[1,2-b:2′,1′-f][1,2,4]triazine-6,8-dione] | 485
CN1C(=O)c2c(O)c(=O)ccn2N2C(c3ccccc3Cl)C(CCO)CCC12 (stereo not drawn) [Compound 66A, 1-(2-chlorophenyl)-7-hydroxy-2-(2-hydroxyethyl)-5-methyl-1,2,3,4,4a,5-hexahydrodipyrido[1,2-b:2′,1′-f][1,2,4]triazine-6,8-dione] | > 8100
Cc1cccc(F)c1C1C(CC(F)(F)F)CCC2N(C)C(=O)c3c(O)c(=O)ccn3N12 (single isomer, unassigned) [Compound 77C, 1-(2-fluoro-6-methylphenyl)-7-hydroxy-5-methyl-2-(2,2,2-trifluoroethyl)-1,2,3,4,4a,5-hexahydrodipyrido[1,2-b:2′,1′-f][1,2,4]triazine-6,8-dione] | > 810
CN1C(=O)c2c(O)c(=O)ccn2N2C1CCC2(C)c1ccccc1 (single isomer, unassigned) [Compound 61B, 6-hydroxy-1,4-dimethyl-1-phenyl-2,3,3a,4-tetrahydro-1H-pyrido[2,1-f]pyrrolo[1,2-b][1,2,4]triazine-5,7-dione] | 2730
O=C1c2c(O)c(=O)ccn2N2C(c3ccccc3)C(CCC(F)(F)F)CCC2N1CC1CC1 (single isomer, unassigned) [Compound 100B, 5-(cyclopropylmethyl)-7-hydroxy-1-phenyl-2-(3,3,3-trifluoropropyl)-1,2,3,4,4a,5-hexahydrodipyrido[1,2-b:2′,1′-f][1,2,4]triazine-6,8-dione] | 5.4
CN1C(=O)c2c(O)c(=O)ccn2N2C(c3ccccc3)C(CCC(F)(F)F)CCC12C (single isomer, unassigned) [Compound 78A, 7-hydroxy-4a,5-dimethyl-1-phenyl-2-(3,3,3-trifluoropropyl)-1,2,3,4,4a,5-hexahydrodipyrido[1,2-b:2′,1′-f][1,2,4]triazine-6,8-dione] | > 810
CN1C(=O)c2c(O)c(=O)ccn2N2C(c3ccccc3)C(CCC(F)(F)F)CCC12C (single isomer, unassigned) [Compound 78B, 7-hydroxy-4a,5-dimethyl-1-phenyl-2-(3,3,3-trifluoropropyl)-1,2,3,4,4a,5-hexahydrodipyrido[1,2-b:2′,1′-f][1,2,4]triazine-6,8-dione] | 2.9
CCN1C(=O)c2c(O)c(=O)ccn2N2C(c3ccccc3)C(CC(F)(F)F)CCC12C (single isomer, unassigned) [Compound 82A, 5-ethyl-7-hydroxy-4a-methyl-1-phenyl-2-(2,2,2-trifluoroethyl)-1,2,3,4,4a,5-hexahydrodipyrido[1,2-b:2′,1′-f][1,2,4]triazine-6,8-dione] | > 810
Cc1ccccc1C1C(CC2CC2(F)F)CCC2N(C)C(=O)c3c(O)c(=O)ccn3N12 (single isomer, unassigned) [Compound 88B] | > 810
CN1C(=O)c2c(O)c(=O)ccn2N2C1CCCC2(C)c1ccccc1 (single isomer, unassigned) [Compound 18B, 7-hydroxy-1,5-dimethyl-1-phenyl-1,2,3,4,4a,5-hexahydrodipyrido[1,2-b:2′,1′-f][1,2,4]triazine-6,8-dione] | 356
CCC1(c2ccccc2)CCC2N(C)C(=O)c3c(O)c(=O)ccn3N21 (single isomer, unassigned) [Compound 62D, 1-ethyl-6-hydroxy-4-methyl-1-phenyl-2,3,3a,4-tetrahydro-1H-pyrido[2,1-f]pyrrolo[1,2-b][1,2,4]triazine-5,7-dione] | 7970
CN1C(=O)c2c(O)c(=O)ccn2N2C1CCCC2(C)c1ccncc1 (single isomer, unassigned) [Compound 31A, 7-hydroxy-1,5-dimethyl-1-(pyridin-4-yl)-1,2,3,4,4a,5-hexahydrodipyrido[1,2-b:2′,1′-f][1,2,4]triazine-6,8-dione] | 283
CN1C(=O)c2c(O)c(=O)ccn2N2C(c3ccccc3)C(CCC(F)(F)F)CCC12 (single isomer, unassigned) [Compound 128A, 7-hydroxy-5-methyl-1-phenyl-2-(3,3,3-trifluoropropyl)-1,2,3,4,4a,5-hexahydrodipyrido[1,2-b:2′,1′-f][1,2,4]triazine-6,8-dione] | 799
COCCN1C(=O)c2c(O)c(=O)ccn2N2C(c3ccc(F)cc3)CCCC12 (single isomer, unassigned) [Compound 4B, 1-(4-fluorophenyl)-7-hydroxy-5-(2-methoxyethyl)-1,2,3,4,4a,5-hexahydrodipyrido[1,2-b:2′,1′-f][1,2,4]triazine-6,8-dione] | > 8100
CN1C(=O)c2c(O)c(=O)ccn2N2C(c3ccccc3)C(C3CCC(F)(F)CC3)CCC12 (single isomer, unassigned) [Compound 84B, 2-(4,4-difluorocyclohexyl)-7-hydroxy-5-methyl-1-phenyl-1,2,3,4,4a,5-hexahydrodipyrido[1,2-b:2′,1′-f][1,2,4]triazine-6,8-dione] | 42
CN1C(=O)c2c(O)c(=O)ccn2C2C1CCCC2(O)c1ccccc1 (single isomer, unassigned) [Compound 165B, 1,7-dihydroxy-5-methyl-1-phenyl-1,3,4,4a,5,11a-hexahydro-2H-pyrido[1,2-a]quinoxaline-6,8-dione] | > 8100
Cc1ccnc(C2(C)CCCC3N(CC(F)(F)F)C(=O)c4c(O)c(=O)ccn4N32)c1 (single isomer, unassigned) [Compound 50A, 7-hydroxy-1-methyl-1-(4-methylpyridin-2-yl)-5-(2,2,2-trifluoroethyl)-1,2,3,4,4a,5-hexahydrodipyrido[1,2-b:2′,1′-f][1,2,4]triazine-6,8-dione] | > 8100
CCCC1CCC2N(C)C(=O)c3c(O)c(=O)ccn3N2C1(C)c1ccccc1 (single isomer, unassigned) [Compound 33D, 7-hydroxy-1,5-dimethyl-1-phenyl-2-propyl-1,2,3,4,4a,5-hexahydrodipyrido[1,2-b:2′,1′-f][1,2,4]triazine-6,8-dione] | 2.3
CC1CC2N(C)C(=O)c3c(O)c(=O)ccn3N2C(C)(c2ccccc2)C1 (single isomer, unassigned) [Compound 43C, 7-hydroxy-1,3,5-trimethyl-1-phenyl-1,2,3,4,4a,5-hexahydrodipyrido[1,2-b:2′,1′-f][1,2,4]triazine-6,8-dione] | 14.1
CN1C(=O)c2c(O)c(=O)ccn2N2C(c3cccc(Br)c3)C(CC(F)(F)F)CCC12 (single isomer, unassigned) [Compound 83A, 1-(3-bromophenyl)-7-hydroxy-5-methyl-2-(2,2,2-trifluoroethyl)-1,2,3,4,4a,5-hexahydrodipyrido[1,2-b:2′,1′-f][1,2,4]triazine-6,8-dione] | 152
CN1C(=O)c2c(O)c(=O)ccn2N2C1CCC(=O)C2(C)c1ccccc1 (stereo not drawn) [Compound 138B, 7-hydroxy-1,5-dimethyl-1-phenyl-3,4,4a,5-tetrahydrodipyrido[1,2-b:2′,1′-f][1,2,4]triazine-2,6,8(1H)-trione] | 1720

Same assay, conditions: MDCK, 48 h

Structure (SMILES) | EC50 [nM]
CN1C(=O)c2c(O)c(=O)ccn2N2C1CC[C@H]1CCc3ccccc3[C@H]12 (stereo partly drawn) [Compound 150, Cis-16-hydroxy-2-methyl-2,2a,3,4,4a,5,6,10b-octahydrobenzo[h]pyrido[1′,2′:1,6][1,2,4]triazino[2,3-a]quinoline-1,15-dione] | 69.6
CN1C(=O)c2c(O)c(=O)ccn2N2[C@H](c3ccccc3)[C@H](OCC3(C#N)CCC3)CC[C@@H]12 [Compound 159, 1-((((1R,2R,4aS)-7-hydroxy-5-methyl-6,8-dioxo-1-phenyl-1,2,3,4,4a,5,6,8-octahydrodipyrido[1,2-b:2′,1′-f][1,2,4]triazin-2-yl)oxy)methyl)cyclobutane-1-carbonitrile] | 210
CC(C)CC1CC(c2ccccc2)N2C(C1)N(C)C(=O)c1c(O)c(=O)ccn12 (single isomer, unassigned) [Compound 130A, 7-hydroxy-3-isobutyl-5-methyl-1-phenyl-1,2,3,4,4a,5-hexahydrodipyrido[1,2-b:2′,1′-f][1,2,4]triazine-6,8-dione] | > 8100
CN1C(=O)c2c(O)c(=O)ccn2C2C1CCCC2(O)c1ccccc1 (single isomer, unassigned) [Compound 165A, 1,7-dihydroxy-5-methyl-1-phenyl-1,3,4,4a,5,11a-hexahydro-2H-pyrido[1,2-a]quinoxaline-6,8-dione] | > 8100
